Laboratory results reported in patent publication US8791258B2, “Pro-fluorescent probes” (The Regents of the University of California, priority 2008, dated 2014).
Blank lines part the entries; values can stand above or below the molecule they belong to.

Tests used:
HeLa cells = type: cell-based; conditions: 5 μM probe; 50 nM MitoTracker Deep Red, 500 nM LysoTracker Red
Method: 100 μM H2O2 was then added to one of the petri dishes. At 20 minutes, 50 nM MitoTracker Deep Red, 500 nM Lysotracker Red, and 1 μM Hoechst 33342 were added to both dishes. After an additional 20 minutes (40 minute stimulation total), the two coverslips were put in a single, new petri dish filled with fresh DPBS and confocal images were taken (3.2 μsec pixel time, 100% laser power for 514 line, 4.1% laser power for the 633 line, 26% laser power for the 543 line, scanned using 12-bit multi-track scan mode using a constant receiver gain). Shown above are signals from MitoPY1 (a), MitoTracker Deep Red (b), LysoTracker Red (c), an overlay of MitoTracker Deep Red and MitoPY1 (d), Hoechst (e), and a brightfield image (f) of cells not treated with H2O2, as well as signals from MitoPY1 (g), MitoTracker Deep Red (h), LysoTracker Red (i), an overlay of MitoTracker Deep Red and MitoPY1 (j), Hoechst (k), and a brightfield image (l) of cells treated with H2O2. A 20 μm scale bar shown for all images.
HeLa cells incubated with 5 μM MitoPY1 for 60 min at 37° C. and imaged with MitoPY1 (a), MitoTracker Red and Hoechst (overlay, b), and MitoPY1 with MitoTracker Red (overlay, c). HeLa cells incubated with 5 μM MitoPY1 for 60 min at 37° C. with 100 μM H2O2 added for the final 40 min and imaged with MitoPY1 (d), MitoTracker Red and Hoechst (overlay, e), MitoPY1 and MitoTracker Red (overlay, f), and brightfield (g) with 20 μm scale bar. HeLa cells incubated with 5 μM MitoPY1 for 60 min at 37° C. and imaged with MitoPY1 (h), MitoTracker Red and Hoechst (overlay, i), and MitoPY1 with MitoTracker Red (overlay, j). HeLa cells incubated for 24 h with 1 mM paraquat, then washed and incubated with 5 μM MitoPY1 for 60 min at 37° C. and imaged with MitoPY1 (k), MitoTracker Red and Hoechst (overlay, l), MitoPY1 and MitoTracker Red (overlay, m), and brightfield (n) with 20 μm scale bar.
HEK293 cells were cultured in DMEM (Invitrogen) supplemented with 10% fetal bovine serum (FBS, Hyclone) and glutamine (2 mM). CHO.K1 cells were cultured in DMEM with F-12 supplements, glutamax (Invitrogen), and 5% FBS. Cos-7 cells were cultured in DMEM with high glucose, glutamax, 10% FBS, and non-essential amino acids (Invitrogen). HeLa cells were cultured in DMEM with high glucose, glutamax, and 10% FBS. Two days before imaging, cells were passaged and plated on 18-mm glass coverslips. For all experiments, solutions of dyes (from 5 mM stocks in DMSO) were made in DBPS with calcium chloride and magnesium chloride (Sigma). H2O2 was added by bath application to the medium from a 100 mM aqueous stock. For paraquat treatment, HeLa cells were cultured as described above. One day prior to imaging, 1 mM paraquat was added to cells from a 0.5 M stock solution in water. An equal amount of water was added to control cells at the same time. Cells were then incubated at 37° C., 5% CO2. After 24 hours, the media was exchanged for DPBS with 5 μM dye and incubated for 1 hour.
Confocal fluorescence imaging studies were performed with a Zeiss LSM510 NLO Axiovert 200 laser scanning microscope and a 63× Achroplan IR water-immersion objective lens. Excitation of PY-loaded cells at 510 nm was carried out with an Ar laser and emission was collected using a META detector between 527-580 nm. MitoTracker Deep Red was excited with a 633-nm line and emission was collected between 666-698 nm. LysoTracker Red was excited with a 543-nm line and emission was collected between 580-644 nm. Excitation of Hoechst 33342 was carried out using a MaiTai two-photon laser at 780-nm pulses (mode-locked Ti:sapphire laser, Tsunami Spectra Physics) and emission was collected between 452-537 nm. Image analysis was performed in Adobe Photoshop.
MitoPY1 was tested for its ability to both target the mitochondria and respond to H2O2 in living biological systems. […] Again, co-staining with MitoTracker confirms that the dye is retained in the mitochondria and detects localized rises in H2O2 concentrations.

[1] = Absorption and emission properties, fluorescence quantum yield; type: physicochemical; conditions: 20 mM HEPES, pH 7; for fluorescence quantum yield Φ: by reference to fluorescein; for extinction coefficient ε at 510 nm: λabs 510 nm
Method: (§1) Millipore water was used to prepare all aqueous solutions. All spectroscopic measurements were performed in 20 mM HEPES buffer, pH 7. Absorption spectra were recorded using a Varian Cary 50 spectrophotometer (Walnut Creek, Calif.). Fluorescence spectra were recorded using a Photon Technology International Quanta Master 4 L-format scanning spectrofluorometer (Lawrenceville, N.J.) equipped with an LPS-220B 75-W xenon lamp and power supply, A-1010B lamp housing with integrated igniter, switchable 814 photon-counting/analog photomultiplier detection unit, and MD5020 motor driver. Samples for absorption and fluorescence measurements were contained in 1-cm×1-cm quartz cuvettes (1.4- or 3.5-mL volume, Starna, Atascadero, Calif.).
as §1, with “recorded on” for “recorded using”, “Creek, Calif.) and fluorescence” for “Creek, Calif.). Fluorescence”, “and emission” for “and fluorescence”, “cuvettes (1.5-mL” for “cuvettes (1.4- or 3.5-mL”, “Calif.). Fluorescence quantum yields were determined by reference to fluorescein in 0.1M NaOH (Φ=0.95).” for “Calif.).”

[2] = cited from earlier work
[3] = Fluorescence response to various ROS (H2O2 selectivity); conditions: 20 mM HEPES, pH 7, 25° C.
Method: (§2) FIG. 7 is the fluorescence response of 5 μM PF1 to various ROS (10 mM O2^−, 100 μM for all other ROS). .OH and .Ot-Bu were generated by reaction of Fe^2+ with H2O2 or tert-butyl hydroperoxide (TBHP), respectively. NO was delivered using S-nitrosocysteine (SNOC). Spectra were acquired in 20 mM HEPES, pH 7, and all data were obtained after incubation with the appropriate ROS at 25° C. for 1 h. Collected emission was integrated between 460 and 700 nm (λexc=450 nm).
FIG. 8 is the fluorescence response of 5 μM PR1 to various ROS (10 mM O2^−, 100 μM for all other ROS). .OH and .O^tBu were generated by reaction of Fe^2+ with H2O2 or tert-butyl hydroperoxide (TBHP), respectively. NO was delivered using S-nitrosocysteine (SNOC). Spectra were acquired in 20 mM HEPES, pH 7, and all data were obtained after incubation with the appropriate ROS at 25° C. for 30 min. Collected emission was integrated between 570 and 800 nm (λexc=560 nm).
as §2, with “FIG. 9” for “FIG. 7”, “of 10” for “of 5”, “μM PX1” for “μM PF1”, “between 370” for “between 460”, “and 600” for “and 700”, “nm (λexc=350” for “nm (λexc=450”
as §1
FIG. 7, FIG. 8 and FIG. 9 compare the relative reactivities of boronate-based PF1, PR1, and PX1, respectively, toward various ROS.

HEK cells = assay: Confocal and two-photon fluorescence imaging of H2O2 in live HEK cells
Method: (a) Fluorescence image of HEK cells incubated with 5 μM PF1 for 5 min at 25° C. (b) Fluorescence image of PF1-stained HEK cells treated with 100 μM H2O2 for 11 min at 25° C. Excitation was provided at 488 nm, and emission was collected in a window from 505 to 580 nm. Scale bar=27 μm.
(a) Fluorescence image of HEK cells incubated with 10 μM PR1 for 10 min at 25° C. (b) Fluorescence image of PR1-stained HEK cells treated with 100 μM H2O2 for 30 min at 25° C. Excitation was provided at 543 nm, and emission was collected in a window from 548 to 644 nm. Scale bar=18 μm.
(a) Fluorescence image of HEK cells incubated with 10 μM PX1 for 2-3 min at 25° C. (b) Fluorescence image of PX1-stained HEK cells treated with 100 μM H2O2 for 30 min at 25° C. Two-photon excitation was provided at 704 nm, and emission was collected in a window from 420 to 500 nm. Scale bar=18 μm.
HEK 293T cells were cultured in Dulbecco's Modified Eagle Medium (DMEM, Invitrogen, Carlsbad, Calif.) supplemented with 10% Fetal Bovine Serum (FBS, Invitrogen), glutamine (2 mM), and penicillin/streptomycin (50 μg/ml, Invitrogen). One day before imaging, cells were passed and plated on 18-mm glass coverslips coated with poly-L-lysine (50 μg/ml, Sigma, St. Louis, Mo.). Immediately before the experiments, cells were washed with PBS buffer, incubated with the probe in PBS, and imaged.
Confocal fluorescence imaging was performed with a Zeiss LSM510 META laser scanning microscope containing an Axioplan 2 MOT upright microscope and a 40× water-immersion objective lens. Excitation of PF1-loaded cells at 488 nm was carried out with an argon ion laser, and emission was Collected in a window from 505 nm to 580 nm using a META detection system. Excitation of PR1-loaded cells at 543 nm was carried out with a HeNe laser, and emission was collected in a window from 548 nm to 644 nm using a META detector. PF1 or PR1 were incubated with live cell samples for 5 to 10 min. Addition of H2O2 (10 to 100 μM) to cell samples was performed directly on the microscope stage by bath application to the media.
Two-photon fluorescence imaging of PX1 was carried out using an inverted Zeiss LSM510 Axiovert 200M microscope with a NeoFLUAR 40×/1.3 NA oil-immersion objective lens. Samples were excited by 704-nm pulses from a mode-locked Ti:Sapphire laser (Tsunami, SpectraPhysics, 120-150 fs pulse width, 80 MHz repetition rate). The emission light was filtered with a 80-nm wide bandpass filter centered at 460 nm (460BP40, Chroma) and detected with the non-descanned detector (NDD) of the LSM510.

SMILES: CC(=O)N1CCN(c2ccc3c(c2)Oc2cc(B4OC(C)(C)C(C)(C)O4)ccc2C32OC(=O)c3ccccc32)CC1 (centres unmarked) [ContPY1]
- subcellular localization (co-staining with MitoTracker Deep Red, LysoTracker Red) (HeLa cells): only MitoPY1 targets the mitochondria
- fluorescence quantum yield Φ [1]: 0.018
- extinction coefficient ε at 515 nm of the corresponding rhodol formed with H2O2 ([1]; after reaction with H2O2, 515 nm): 38,200 M^−1 cm^−1
- fluorescence quantum yield Φ of the corresponding rhodol formed with H2O2 ([1]; after reaction with H2O2, λem 543 nm): 0.388
- extinction coefficient ε at 404 nm ([1]; λabs 404 nm): 4,100 M^−1 cm^−1
- extinction coefficient ε at 490 nm ([1]; λabs 490 nm): 15,600 M^−1 cm^−1
- extinction coefficient ε at 510 nm [1]: 16,130 M^−1 cm^−1

SMILES: O=C(O)c1ccccc1C1c2cc(Cl)c(O)cc2Oc2cc(O)c(Cl)cc21 [DCFH, 2′,7′-dichlorodihydrofluorescein]
- fluorescence increase by reaction with .OH or peroxynitrite (ONOO−) ([2]; .OH or ONOO−): ca. 7000 fold
- fluorescence increase upon addition of H2O2, previously reported probes ([2]; H2O2): 190 fold
- fluorescence increase with NO ([2]; NO): 150 fold
- fluorescence increase with O2− ([2]; O2−): 67 fold
- fluorescence increase upon light-induced autoxidation ([2]; light-induced autoxidation): 2000 fold

- fluorescence quantum yield Φ [1]: 0.405
- extinction coefficient ε at 510 nm [1]: 22,300 M^−1 cm^−1
SMILES: O=C1OC2(c3ccc(O)cc3Oc3cc(N4CCN(CCCC[P+](c5ccccc5)(c5ccccc5)c5ccccc5)CC4)ccc32)c2ccccc21 (centres unmarked) [MitoPY1ox]
- subcellular localization (co-staining with MitoTracker Deep Red, LysoTracker Red) (HeLa cells): only MitoPY1 targets the mitochondria

SMILES: CC1(C)OB(c2ccc3c(c2)Oc2cc(B4OC(C)(C)C(C)(C)O4)ccc2N3)OC1(C)C [PR1, 3,7-Bis(pinacolatoboron)phenoxazine]
- higher response for H2O2 over .OH ([3]; 100 μM ROS, .OH from Fe2+ with H2O2): > 200 fold
- higher response for H2O2 over .OtBu ([3]; 100 μM ROS, .OtBu from Fe2+ with TBHP): > 200 fold
- higher response for H2O2 over NO ([3]; 100 μM ROS, NO delivered using SNOC): > 200 fold
- higher response for H2O2 over O2− ([3]; 10 mM O2−, 100 μM H2O2): > 1000 fold
- intracellular background fluorescence of probe-loaded cells before H2O2 (HEK cells; 5-10 μM probe, 2-10 min at 25° C.): virtually no background fluorescence
- cell viability during imaging (HEK cells; after probe incubation and H2O2 treatment, brightfield): cells are viable throughout the experiments
- membrane permeability / cell entry (HEK cells; live HEK cells): membrane-permeable
- intracellular fluorescence after addition of H2O2 (HEK cells; probe-loaded cells, 10-100 μM H2O2): Striking increases in intracellular red fluorescence
